Experimental data published in ChEMBL document CHEMBL1147421, “Diamine derivatives with antiparasitic activities” (Bioorg Med Chem Lett, 2004).
Values joined by “and” are separate entries in the source; they are usually repeats but may differ in a detail not shown here. Equal entries are not always repeated.

What was measured:
[1] = Antiparasitic activity against Leishmania promastigotes (Leishmania donovani); format: functional
Plasmodium falciparum [2] = experiment: Antiparasitic activity against chloroquine-resistant Plasmodium falciparum W2; format: functional, organism-based
Plasmodium falciparum [3] = experiment: Antiparasitic activity against Plasmodium falciparum D6; format: functional, organism-based
[4] = Effective concentration expressed as antiparasitic activity against Leishmania promastigotes (Leishmania donovani); NA = Not active; format: functional

| Compound | EC50 [1] | EC50 (Plasmodium falciparum [2]) | EC50 (Plasmodium falciparum [3]) | EC50 (Plasmodium falciparum [3]; Plasmodium falciparum) [µM] | EC50 (Plasmodium falciparum [2]; Plasmodium falciparum) [µM] | EC50 [4] |
| --- | --- | --- | --- | --- | --- | --- |
| NCCCN(Cc1ccccc1)Cc1ccc(C(=O)O)cc1.O=C(O)C(F)(F)F | 8.97 µM | Not Active | Not Active | – | – | – |
| COc1cccc(CN(CCCN)Cc2cccc(OC)c2)c1.O=C(O)C(F)(F)F | 12.6 µM | Not Active | Not Active | – | – | – |
| NCCCN(Cc1ccc(-c2ccc(Br)cc2)o1)Cc1ccc(-c2ccc(Br)cc2)o1.O=C(O)C(F)(F)F | 8.51 µM | Not Active | – | 5.62 | – | – |
| COc1ccc(CN(CCCCN)Cc2ccccc2)cc1.O=C(O)C(F)(F)F | 1.45 µM | – | Not Active | – | 2.23 | – |
| COc1cc(CN(CCCN)Cc2ccc(O)c(OC)c2)ccc1O.O=C(O)C(F)(F)F | – | Not Active | Not Active | – | – | Not Active |
| NCCCCN(Cc1ccc(OCc2ccccc2)cc1)Cc1ccc(OCc2ccccc2)cc1 | 1.85 µM | – | – | 3.2 | 4.88 | – |
| NCCCCN(Cc1ccc(Br)o1)Cc1ccc(Br)o1.O=C(O)C(F)(F)F | 19.2 µM | Not Active | Not Active | – | – | – |
| CCCCOc1ccc(CN(CCCN)Cc2ccc(OCCCC)cc2)cc1 | 1.22 µM and 1.27 µM | 6.44 µM | 4.1 µM | 4.37 | 6.64 | – |
| COc1ccc(CN(CCCN)Cc2ccccc2)cc1OC.O=C(O)C(F)(F)F | 3.97 µM | – | Not Active | – | 5.6 | – |
| CCCCN(CCCC)CCCN.O=C(O)C(F)(F)F | 4.66 µM | Not Active | – | 6.33 | – | – |
| NCCCN(Cc1ccccc1)Cc1ccc(Cc2ccc(Br)o2)cc1.O=C(O)C(F)(F)F | 20.6 µM | – | Not Active | – | 5.72 | – |
| NCCCCN(Cc1ccc(OCc2ccc(Cl)c(Cl)c2)cc1)Cc1ccc(OCc2ccc(Cl)c(Cl)c2)cc1 | 3.82 µM and 3.66 µM | 2.59 µM and 0.69 µM | – | 1.16 | – | – |
| NCCCN(Cc1ccc(OCc2ccccc2)cc1)Cc1ccc(OCc2ccccc2)cc1 | 1.12 µM | – | – | 4.99 | 6.03 | – |
| CC(C)(C)c1ccc(COc2ccc(CN(CCCN)Cc3ccc(OCc4ccc(C(C)(C)C)cc4)cc3)cc2)cc1 | 2.13 µM and 1.37 µM | 4.04 µM | 2.02 µM | 2.52 | 3.85 | – |
| NCCCCN(Cc1ccccc1)Cc1ccc(Cl)cc1.O=C(O)C(F)(F)F | 1.61 µM | Not Active | Not Active | – | – | – |
| NCCCCN(Cc1ccc(OCc2ccccc2)c(OCc2ccccc2)c1)Cc1ccc(OCc2ccccc2)c(OCc2ccccc2)c1 | 1.86 µM | – | – | 3.47 | 2.23 | – |
| NCCCN(Cc1ccc(OCc2ccc(Cl)c(Cl)c2)cc1)Cc1ccc(OCc2ccc(Cl)c(Cl)c2)cc1 | 0.97 µM and 2.57 µM | 4.11 µM | 1.54 µM | 1.34 | 3.2 | – |
| COc1ccc(CN(CCCCN)Cc2ccc(OC)c(O)c2)cc1O.O=C(O)C(F)(F)F | – | Not Active | Not Active | – | – | Not Active |
| NCCCN(Cc1ccc(OCCCc2ccccc2)cc1)Cc1ccc(OCCCc2ccccc2)cc1 | 0.94 µM and 1 µM | 3.44 µM | 2.01 µM | 1.88 | 5.34 | – |
| NCCCN(Cc1ccc(OCc2ccccc2)c(OCc2ccccc2)c1)Cc1ccc(OCc2ccccc2)c(OCc2ccccc2)c1 | 1.64 µM | – | – | 2.9 | 3.03 | – |

| Compound | EC50 [1] | EC50 (Plasmodium falciparum [2]) | EC50 (Plasmodium falciparum [3]) | EC50 (Plasmodium falciparum [3]; Plasmodium falciparum) [µM] | EC50 (Plasmodium falciparum [2]; Plasmodium falciparum) [µM] | EC50 [4] |
| --- | --- | --- | --- | --- | --- | --- |
| NCCCCN(Cc1ccc(O)cc1)Cc1ccc(O)cc1.O=C(O)C(F)(F)F | – | Not Active | Not Active | – | – | Not Active |
| CC1=C2[C@H]3OC(=O)[C@@H](C)[C@@H]3[C@@H](O)C[C@@]2(C)C=CC1=O | – | – | – | 0.02 | 0.02 | – |
| CC(C)(C)c1ccc(COc2ccc(CN(CCCCN)Cc3ccc(OCc4ccc(C(C)(C)C)cc4)cc3)cc2)cc1 | 8.92 µM and 3 µM | 6.42 µM and 2.09 µM | – | 1.07 | – | – |
| CCCCOc1ccc(CN(CCCCN)Cc2ccc(OCCCC)cc2)cc1 | 2.47 µM and 3.92 µM | 2.9 µM | – | 4.09 | 4.18 | – |
| NCCCN(Cc1ccccc1)Cc1ccc(Cl)cc1.O=C(O)C(F)(F)F | 1.86 µM | – | Not Active | – | 7.7 | – |
| COc1ccc(CN(CCCN)Cc2ccc(OC)cc2)cc1.O=C(O)C(F)(F)F | 10 µM | – | Not Active | – | 9.34 | – |
| NCCCN(Cc1ccccc1)Cc1ccc(Cc2ccncc2)cc1.O=C(O)C(F)(F)F | – | Not Active | Not Active | – | – | Not Active |
| NCCCCN(Cc1ccccc1)Cc1ccc(C(=O)O)cc1.O=C(O)C(F)(F)F | 10.3 µM | Not Active | Not Active | – | – | – |
| NCCCN(Cc1ccc(OCCc2ccccc2)cc1)Cc1ccc(OCCc2ccccc2)cc1.O=C(O)C(F)(F)F | 14.2 µM and 11.1 µM | Not Active | 6.94 µM | 4.25 | – | – |
| CC(C)c1ccc(CN(CCCCN)Cc2ccc(C(C)C)cc2)cc1.O=C(O)C(F)(F)F | 3 µM | – | Not Active | – | 7.29 | – |
| Cc1ccc(COc2ccc(CN(CCCN)Cc3ccc(OCc4ccc(C)cc4)cc3)cc2)cc1 | 1.2 µM and 1.07 µM | 4.6 µM | 1.41 µM | 1.42 | 3.59 | – |
| COc1cccc(CN(CCCCN)Cc2cccc(OC)c2)c1.O=C(O)C(F)(F)F | 10.8 µM | – | Not Active | – | 6.1 | – |
| CC(C)c1ccc(CN(CCCN)Cc2ccccc2)cc1 | 1.58 µM | – | – | 7.31 | 2.19 | – |
| NCCCCN(Cc1ccc(Cl)cc1)Cc1ccc(Cl)cc1.O=C(O)C(F)(F)F | 3.77 µM | Not Active | Not Active | – | – | – |
| CC(C)c1ccc(CN(CCCCN)Cc2ccccc2)cc1 | 1.88 µM | – | – | 9.66 | 10.1 | – |
| NCCCCN(Cc1ccccc1)Cc1ccc(Br)o1.O=C(O)C(F)(F)F | 21.1 µM | Not Active | Not Active | – | – | – |
| COc1ccc(CN(CCCCN)Cc2ccc(OC)cc2)cc1.O=C(O)C(F)(F)F | 10.6 µM | – | Not Active | – | 6.78 | – |
| N=C(N)c1ccc(OCCCCCOc2ccc(C(=N)N)cc2)cc1 [PENTAMIDINE] | 1.35 µM | – | – | – | – | – |
| COc1ccc(CN(CCCCN)Cc2ccc(OC)cc2OC)c(OC)c1.O=C(O)C(F)(F)F | – | Not Active | – | 7.76 | – | Not Active |
| NCCCN(Cc1ccc(OCc2c(F)c(F)c(F)c(F)c2F)cc1)Cc1ccc(OCc2c(F)c(F)c(F)c(F)c2F)cc1 | 3.81 µM and 1.95 µM | 3.29 µM | 2.68 µM | 2.24 | 3.16 | – |

| Compound | EC50 [1] | EC50 (Plasmodium falciparum [2]) | EC50 (Plasmodium falciparum [3]) | EC50 (Plasmodium falciparum [3]; Plasmodium falciparum) [µM] | EC50 (Plasmodium falciparum [2]; Plasmodium falciparum) [µM] | EC50 [4] |
| --- | --- | --- | --- | --- | --- | --- |
| COc1ccc(CN(CCCN)Cc2ccccc2)cc1.O=C(O)C(F)(F)F | 4.52 µM | Not Active | Not Active | – | – | – |
| COc1cc(CN(CCCN)Cc2ccc(OCc3ccccc3)c(OC)c2)ccc1OCc1ccccc1 | 0.67 µM | – | – | 2.97 | 2.81 | – |
| NCCCCN(Cc1ccccc1)Cc1ccccc1.O=C(O)C(F)(F)F | 26.2 µM | Not Active | Not Active | – | – | – |
| COc1ccc(CN(CCCCN)Cc2ccccc2)cc1OC.O=C(O)C(F)(F)F | 8.36 µM | – | Not Active | – | 3.62 | – |
| CCN(CC)CCCC(C)Nc1ccnc2cc(Cl)ccc12 (centres undefined) [CHLOROQUINE] | – | – | – | 0.014 | 0.31 | – |
| COc1ccc(OC)c(CN(CCCCN)Cc2cc(OC)ccc2OC)c1.O=C(O)C(F)(F)F | 5.37 µM | Not Active | Not Active | – | – | – |
| CC(C)c1ccc(CN(CCCN)Cc2ccc(C(C)C)cc2)cc1.O=C(O)C(F)(F)F | 2.65 µM | – | Not Active | – | 9.5 | – |
| COc1cc(CN(CCCCN)Cc2ccc(OCc3ccccc3)c(OC)c2)ccc1OCc1ccccc1 | 1.83 µM | – | – | 1.07 | 1.68 | – |
| NCCCCN(Cc1ccc(OCCc2ccccc2)cc1)Cc1ccc(OCCc2ccccc2)cc1.O=C(O)C(F)(F)F | 13 µM and 27 µM | Not Active | 8.68 µM | 7.43 | – | – |
| COc1cc(CN(CCCN)Cc2cc(OC)cc(OC)c2)cc(OC)c1.O=C(O)C(F)(F)F | 9.42 µM | Not Active | Not Active | – | – | – |
| NCCCCN(Cc1ccccc1)Cc1ccc(OCc2ccccc2)cc1 | 0.37 µM | – | – | 5.73 | 7.78 | – |
| NCCCCN(Cc1ccc(OCc2c(F)c(F)c(F)c(F)c2F)cc1)Cc1ccc(OCc2c(F)c(F)c(F)c(F)c2F)cc1 | 2.52 µM and 2.97 µM | 2.07 µM | – | 0.68 | 2.16 | – |
| NCCCN(Cc1ccc(OCc2ccc(Br)cc2)cc1)Cc1ccc(OCc2ccc(Br)cc2)cc1 | 0.91 µM and 0.88 µM | 2.25 µM | 1.23 µM | 1.14 | 2.44 | – |
| COc1ccc(CN(CCCN)Cc2ccc(OC)cc2OC)c(OC)c1.O=C(O)C(F)(F)F | 20.5 µM | – | Not Active | – | 9.42 | – |
| NCCCN(Cc1ccc(Br)o1)Cc1ccc(Br)o1.O=C(O)C(F)(F)F | 19.8 µM | Not Active | Not Active | – | – | – |
| NCCCN(Cc1ccccc1)Cc1ccccc1.O=C(O)C(F)(F)F | 24.2 µM | Not Active | Not Active | – | – | – |
| NCCCN(Cc1ccccc1)Cc1ccc(OCc2ccccc2)cc1 | 1.37 µM | – | – | 4.43 | 3.79 | – |
| NCCCN(Cc1ccc(Cl)cc1)Cc1ccc(Cl)cc1.O=C(O)C(F)(F)F | 8.69 µM | – | Not Active | – | 10.1 | – |
| C[C@@H]1[C@H](O)[C@@H](C)/C=C/C=C/CC/C=C/C=C/C=C/C=C/[C@H](O[C@@H]2O[C@H](C)[C@@H](O)[C@H](N)[C@@H]2O)C[C@@H]2O[C@](O)(C[C@@H](O)C[C@@H](O)[C@H](O)CC[C@@H](O)C[C@@H](O)CC(=O)O[C@H]1C)C[C@H](O)[C@H]2C(=O)O | 0.01 µM | – | – | – | – | – |
| NCCCCN(Cc1ccc(OCCCc2ccccc2)cc1)Cc1ccc(OCCCc2ccccc2)cc1 | 2.46 µM and 2.96 µM | 2.53 µM | 1.04 µM | 1.12 | 3.07 | – |
